We go through one substance from article PMC10380766, “Development of Hydrophobic Cell-Penetrating Stapled Peptides as Drug Carriers” (International Journal of Molecular Sciences, 2023).

Data set [1] in a line: Zeta-potential measurement of peptide/pDNA complexes. Type of data set: physicochemical. The following applies: peptide/pDNA complex, laser-Doppler electrophoresis, 10 mM Hepes pH 7.3, 25 °C, mean ± SD of 3 measurements. On the procedure:
(§1) The ability of peptides F-1–F-4 to deliver pDNA was evaluated using complexes between the peptides and pDNA in 10 mM Hepes buffer (pH 7.3). The zeta potentials and sizes of the peptide/pDNA complexes prepared at various charge ratios were determined (Table 2). The size of the F-1 peptide/pDNA complexes at a charge ratio of 2 was 3364 nm, and the sizes decreased with an increase in the charge ratios (Table 2). The sizes of the peptide/pDNA complexes were in the order of several hundred nm, which is considered to be a useful size for the delivery of pDNA, except for the complex with F-1 at N/P = 2, which was defined as the residual molar ratio of the amino groups in polycations of peptides (N) to the phosphate groups in pDNA (P). […] Thus, we examined the complexes of F-1–F-4 at N/P = 8 to evaluate the effect of the stapling of TP10 on the ability to deliver pDNA.
(§2) Each 1 mM peptide solution in DMSO and pDNA was dissolved separately in 10 mM Hepes buffer (pH 7.3). To form peptide/pDNA complexes, peptide solutions of various concentrations were added to the pDNA solution in 2-fold excess. The final pDNA concentration was adjusted to […]. After the complex solutions were stored at room temperature for 15 min, the complex solutions were added. The charge ratio was defined as the residual molar ratio of the amino group of amino acid in the peptide to the phosphate group in the pDNA.
(§3) The zeta-potentials of the peptide/pDNA complexes in 10 mM Hepes buffer (pH 7.3) were evaluated by the laser-Doppler electrophoresis method using Nano ZS (ZEN3600, Malvern Instruments, Ltd., Malvern, UK) with a He–Ne ion laser (633 nm). Light scattering data were obtained at a detection angle of 173° and temperature of 25 °C, and were subsequently analyzed by the cumulant method to obtain the hydrodynamic diameters, polydispersity indices (PDI) (m/G^2) and zeta-potential of the complexes. Results were presented as the mean and standard deviation of 3 measurements (Table 2).

Data set [2] in a line: DLS measurement of peptide/pDNA complexes (size, PDI). It counts as physicochemical. The following applies: peptide/pDNA complex, mean ± SD of 3 measurements; for Size: cumulant method. On the procedure:
as §1, §2, §3

Data set [3] concerns HEK293 cells. The data set is described as follows: Cellular uptake of peptide/Cy5-pDNA complexes by flow cytometry. Type of data set: cell-based. The following applies: peptide/Cy5-pDNA complex at N/P = 8, HEK293 cells, flow cytometry 488 nm excitation, n = 4 (Figure S1). As to the method: (§4) The intracellular uptake of Cy5-labeled pDNA complexed with peptides F-1–F-4 was evaluated in […] cells. The fluorescence intensity of Cy5 incorporated into […] was quantified using flow cytometry at 24 h after administration (Figure 5). […] The stability of the peptide/pDNA complex was then evaluated by adding the negatively charged competitive inhibitor, dextran sulfate.
Figure 5 Cellular uptake of peptide/Cy5-pDNA complexes at N/P = 8 in HEK293 cells. The cellular uptake ability was determined by flow cytometry. The cells were excited with a 635 nm light for detecting Cy5-pDNA. Error bars represent the mean ± standard deviation, n = 4.
Each 1 mM peptide solution in DMSO and pDNA was dissolved separately in 10 mM Hepes buffer (pH 7.3). To form peptide/pDNA complexes, peptide solutions of various concentrations were added to the pDNA solution in 2-fold excess. The final pDNA concentration was adjusted to 33.3 mg/mL. After the complex solutions were stored at room temperature for 15 min, the complex solutions were added. […]
HEK293 cells were seeded on 24-well culture plates (100,000 cells/well) and incubated overnight in 500 μL of DMEM. […] The cell pellets obtained were suspended in PBS and the cells were analyzed by a BD accuri C6 Plus flow cytometer (BD Bioscience, New Jersey).
Figure S1. […] Cellular uptake ability was determined by flow cytometry. […]
In general terms: Flow cytometry measures light scatter and fluorescence of single cells or particles in a stream.

Data set [4] deals with HEK293 cells. The data set is described as follows: Cellular-uptake mechanism: endocytosis inhibitors and 4 °C. Type of data set: cell-based. Particulars: peptide 5 µM, flow cytometry. From the text: To inhibit specific endocytic pathways, three different inhibitors were used: amiloride, nystatin, and sucrose. Each inhibitor targets a distinct endocytic pathway: amiloride inhibits […] (a form of endocytosis where cells engulf fluid and solutes); nystatin inhibits caveolae-mediated endocytosis (a process involving small invaginations in the cell membrane called caveolae); and sucrose inhibits clathrin-mediated endocytosis (a mechanism in which the protein clathrin forms coated pits on the cell surface to internalize molecules). As a control, a peptide called nona-arginine (R9) with CF […] was used. This peptide is known to enter cells via endocytosis. The uptake of CF-R9 with that of the parent peptide F-1 and the stapled peptide F-3 was compared.
HEK293 cells were seeded in 24-well plates at a density of 200,000 cells/well and cultured in DMEM for 23 h. After the medium had been replaced with fresh medium containing 10% FBS in the absence or presence of amiloride (5 mM), sucrose (0.4 M), or nystatin (25 μg/mL), the cells were pre-incubated at 37 °C for 30 min. Then, the cells were treated with the relevant peptide (peptide concentration; 5 µM) and incubated for 30 min at 37 °C. […] Then, the cells were analyzed by a BD accuri C6 Plus flow cytometer (BD Bioscience, New Jersey). […]

Data set [5] can be described thus: CD spectroscopy, secondary structure (R value). It counts as physicochemical. The following applies: 10% acetonitrile in 20 mM phosphate buffer pH 7.4, peptide 50 µM, ratio of CD signal intensities at 222 and 208 nm. On the procedure:
CD measurements were performed to analyze the preferred secondary structures of the synthesized peptides F-1–F-4 (10% acetonitrile in 20 mM phosphate buffer, pH 7.4) (Figure 2). […] These characteristic Cotton effects indicated the presence of a helical structure in F-1. […] To further evaluate the dominant secondary structures of the peptides, a parameter called the R value (θ222/θ208) was calculated. The R value represents the ratio of the CD signal intensities at 222 nm and 208 nm, respectively. For the peptides F-1, F-2, F-3, and F-4, the R values were determined to be 0.72, 1.83, 0.95, and 1.58, respectively. Based on previous studies, these R values indicate that the dominant secondary structures of all the peptides were α-helices.
CD spectra were recorded with a JASCO J-1100 CD spectrometer using a 1.0 mm path length cell. The data are expressed in terms of [θ]; i.e., total molar ellipticity (deg cm^2 dmol^−1). Peptides were dissolved in 10% MeCN in 20 mM phosphate buffer solution at 50 µM concentrations. Each parameter was: wavelength: 190–260 nm; bandwidth: 1 nm; response: 1 s; speed: 50 nm min^−1; accumulations: 3 times; and path length: […].

In a further data set the test system is pDNA. Nature of the data set: Displacement assay with dextran sulfate (gel retardation). The following applies: N/P = 8, 100 ng pDNA, 30 min at 37 °C, agarose gel. Type of data set: physicochemical. On the procedure: as §4
Complex with 100 ng of pDNA and peptide at N/P ratio = 8 were incubated for 30 min at 37 °C in the presence of dextran sulfate (sodium salt, Wako, Japan) at various concentrations ranging 0, 0.05, 0.1, 0.5, and 1 mg/mL. After the incubation, the samples were analyzed on agarose gel and the gel was stained with SYBR Gold (Thermo Fisher Scientific, Waltham, MA, USA).
Figure S1. Cellular uptake of peptide/Cy5-pDNA complexes at N/P = 8 with HEK293 cells. Cellular uptake ability was determined by flow cytometry. The cells were excited with a 488 nm light from an LD laser for detecting FAM-p eptide. Error bars represent the mean±standard deviation, n = 4.
Dextran sulfate Dextran sulfate Dextran sulfate Dextran sulfate […]
Figure S2. Physicochemical characterization of peptide/pDNA complexes at N/P = 8 with dextran sulfate. Gel retardation assay for evaluation of the stability and the dissociation of the peptide/pDNA complexes upon treatment with dextran sulfate at different concentrations ranging from 0 to 1 mg/mL. […]

Where [6] appears, read: N/P ratio 2, 10 mM Hepes pH 7.3, 25 °C.
[7] abbreviates: N/P ratio 4, 10 mM Hepes pH 7.3, 25 °C.
The mark [8] stands for this setting: N/P ratio 8, 10 mM Hepes pH 7.3, 25 °C.

In the case of “CF-XAGYLLGKINLKALAAS5*AKKS5*L (sidechain bridge or staple) [F-3, C-terminal stapled TP10 analog, Leu and Ile replaced with S5 residues, CF-labelled]”, the Zeta-Potential in data set [1] (N/P ratio 2) was determined as 22.9 ± 1.1 mV; in data set [1] (N/P ratio 4) it was 18.0 ± 1.7 mV; in data set [1] (N/P ratio 8), 20.6 ± 3.0 mV. For the same substance, the results for the Size in data set [2] (setting [6]), in data set [2] (setting [7]) and in data set [2] (setting [8]) were 391 ± 8 nm, 352 ± 57 nm and 324 ± 53 nm, respectively. Also, the PDI in data set [2] (setting [6]) is recorded as 0.417 ± 0.049; in data set [2] (setting [7]), 0.366 ± 0.054; in data set [2] (setting [8]) it was 0.399 ± 0.083. For the same substance, the “fluorescence from peptide detected by CF after adding peptide/Cy5-pDNA complex” value in the data set on HEK293 cells [3] is “strongest fluorescence”. Besides, in the data set on HEK293 cells [4] (30 min at 4 °C compared with 37 °C), the “cellular uptake when incubated at 4 °C” value was “significantly inhibited”. Moreover, in the data set on HEK293 cells [4] (30 min at 37 °C after 30 min pre-incubation with amiloride (5 mM), sucrose (0.4 M) or nystatin (25 μg/mL), n=3), the “cellular uptake when treated with endocytosis inhibitors” value is reported as “significantly inhibited”. Besides, the “R value (θ222/θ208)” value in data set [5] was determined as 0.95. For the same substance, the “concentration of dextran sulfate at which the peptide/pDNA complex dissociated” value with pDNA (dextran sulfate 0, 0.05, 0.1, 0.5, 1 mg/mL, SYBR Gold (Figure S2)) came out at 0.5 mg/mL. The “stability of the peptide/pDNA complex against dextran sulfate” value in the data set with pDNA (dextran sulfate 0-1 mg/mL) is given as “less stable than the other complexes”.
